In patent publication US9464064B2, “HCV helicase inhibitors and methods of use thereof” (University of Kansas, priority 2011, dated 2016):

Key:
[1] = target: T1, E. coli SSB-Cy5-dT15 complex (Escherichia coli, UniProt P0AGE0); test: Escherichia coli SSB Cy5-dT15 binding assay (fluorescence polarization); details: for IC50: disruption of Cy5-dT15-SSB complex, read-out: Cy5-dT15-SSB Binding IC50; for inhibition at 100 µM: read-out: SSB % Displaced @ 100 μM; for EC50: read-out: SSB EC50
T1 construct: purchased Promega
Procedure, shortened: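 Fluorescence polarization with 5 nM Cy5-dT15 and 20 nM E. coli SSB in 25 mM MOPS pH 7.5, 1.25 mM MgCl2, BSA, Tween 20, DTT. Screening at 1% DMSO; IC50 runs at 5% DMSO. Excitation 635 nm, parallel and perpendicular emission at 667 nm.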

scNS4A-NS3p = target: T2, scNS4A-NS3p (UniProt P26663); test: NS3 protease assay (ENZOLYTE 520), protease fragment; format: biochemical, hepatitis C virus genotype 1b; details: read-out: Protease ScNS4a-NS3p IC50 (μM) ± SD; one set of assays
T2 construct: fused on or other part: NS4A cofactor peptide, from the same polyprotein, fused to the NS3 protease fragment
Experimental: (§1) All oligonucleotides were purchased from Integrated DNA Technologies (IDT, Coralville, Iowa). Primuline derivatives were synthesized and purified as described herein. Three different NS3 proteins were used in this study. Two were truncated C-terminally His-tagged NS3 proteins lacking the N-terminal protease, called NS3h, the third was a full-length NS3 with the portion of NS4A needed for protease activation fused to its N-terminus, called scNS4A-NS3 (Howe, et al. (1999) Protein Sci. 8:1332-41), and the fourth was a 23 kDa scNS4A-NS3 protease fragment lacking the helicase domains, called scNS4A-NS3p (Protein One, Rockville, Md.). NS3h was expressed from two different HCV strains. NS3h_1b(con1) was from the con1 strain of genotype 1b (GENBANK accession AB114136), and NS3h_2a(JFH1) was from the JFH1 strain of HCV genotype 2a (GENBANK accession AJ238799). […] His-tagged recombinant NS3h_1b(con1), NS3h_2a(JFH1), and scNS4A-NS3 (also from genotype 1b(con1)) were expressed, and purified as previously described (Frick, et al. (2010) supra; Lam, et al. (2003) J. Virol. 77:3950-3961). The scNS4A-NS3p (genotype 1b) was from Protein One. A plasmid expressing NS3h from dengue virus strain 2 (NS3h_DV2)(GENBANK accession 2BMF) is known in the art (Xu, et al. (2005) J. Virol. 79:10278-10288), and used to express and purify NS3h_DV2 (Belon, et al. (2010) supra)
(§2) All NS3 protease assays were carried out using the 5-Carboxyfluorescein-labeled substrate from the AnaSpec. ENZOLYTE 520 Protease Assay Kit (AnaSpec, San Jose, Calif.). Each assay contained 5 nM scNS4A-NS3 or 50 nM scNS4A-NS3p, […], 5% DMSO and 1× Anaspec HCV protease assay buffer. Assays were carried out in a total volume of 20 μl in black 384-well plates with fluorescence at 520 nm measured using a BMG FLUOstar Omega fluorescence spectrophotometer. Reactions were performed with eight concentrations of a two-fold dilution series of each compound (in duplicate) starting at 100 μM.

NS3h_1b(con1) = target: T3, NS3h_1b(con1) (Hepatitis C virus genotype 1b, UniProt Q9WMX2); test: RNA-stimulated ATP hydrolysis, pH 7.5, HCV; format: biochemical, hepatitis C virus genotype 1b(con1)
T3 construct: truncated C-terminally His-tagged NS3 proteins lacking the N-terminal protease, called NS3h; His-tag (C); made in house
Experimental: (§3) To compare the effect of compounds on HCV NS3h_1b (con1) to NS3h_DV2, reactions were performed with 2 nM of either enzyme in 25 mM Tris pH 7.5, 1.25 mM MgCl2, 1.0 mM ATP, 10% DMSO, 5 μg/ml BSA, 0.01% (v/v) TWEEN 20, 0.05 mM DTT, and 10 μM poly(U) RNA at 37° C.
To further profile compound specificity, it was determined whether the compounds would inhibit homologous NS3h expressed by the Dengue virus (NS3h_DV2). […] The same assays were also repeated with HCV NS3h_1b(con1) for comparison. […] However, most of the primuline derivatives were relatively potent inhibitors of RNA-stimulated ATP hydrolysis catalyzed by the Dengue enzyme under the same conditions.

NS3h_DV2 = target: T4, NS3h_DV2 (Dengue virus type 2, UniProt P29990); test: RNA-stimulated ATP hydrolysis, pH 7.5, Dengue; format: biochemical; details: 10 μM poly(U) RNA, read-out: ATPase w/RNA NS3h_DV2 IC50 (μM) ± SD
T4 construct: made in house
Experimental: as §3
To further profile compound specificity, it was determined whether the compounds would inhibit homologous NS3h expressed by the Dengue virus (NS3h_DV2). […] The same assays were also repeated with HCV NS3h_1b(con1) for comparison.

[2] = Absorbance and fluorescence properties; format: physicochemical; details: for Absorbance ∈: extinction coefficient
Excerpt: Most of the compounds isolated from the two yellow dyes were fluorescent, absorbing light around 340 nm, and emitting near 420 nm. Their extinction coefficient and peak absorption wavelengths increased as the length of the benzothiazole oligomer increased. Their relative fluorescence decreased with the length of the benzothiazole chain. None of the compounds absorbed light near either the absorption or emission wavelengths of the Cy5-labeled MBHA substrate, or the wavelengths where the fluorescence of ethidium bromide stained DNA, SYBER green I-stained DNA, NS3-catalyzed peptide cleavage, or ATP hydrolysis were measured.
When directly compared with P4, the semi-synthetic primuline derivatives have a sharper absorbance peak centered near 360 nm, and they emit 3-15 times more light when excited at their absorbance maximum. […] Some compounds, like 12, stained both the cytoplasm and nucleus, but they also stained glass coverslips.

scNS4A-NS3 = scNS4A-NS3 (Hepatitis C virus genotype 1b, UniProt Q9WMX2); test: NS3 protease assay (ENZOLYTE 520), full-length; format: biochemical, hepatitis C virus genotype 1b(con1); design: other: average of two sets; There is also a His tag
Experimental: as §1, §2

T1 sequence (P0AGE0 2-178, one chain of several): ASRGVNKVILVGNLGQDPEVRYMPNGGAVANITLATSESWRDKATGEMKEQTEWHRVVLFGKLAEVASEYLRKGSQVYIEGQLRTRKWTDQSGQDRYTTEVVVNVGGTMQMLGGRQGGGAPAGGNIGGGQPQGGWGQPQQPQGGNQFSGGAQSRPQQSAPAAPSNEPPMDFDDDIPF
T4 sequence (P29990 1646-2093): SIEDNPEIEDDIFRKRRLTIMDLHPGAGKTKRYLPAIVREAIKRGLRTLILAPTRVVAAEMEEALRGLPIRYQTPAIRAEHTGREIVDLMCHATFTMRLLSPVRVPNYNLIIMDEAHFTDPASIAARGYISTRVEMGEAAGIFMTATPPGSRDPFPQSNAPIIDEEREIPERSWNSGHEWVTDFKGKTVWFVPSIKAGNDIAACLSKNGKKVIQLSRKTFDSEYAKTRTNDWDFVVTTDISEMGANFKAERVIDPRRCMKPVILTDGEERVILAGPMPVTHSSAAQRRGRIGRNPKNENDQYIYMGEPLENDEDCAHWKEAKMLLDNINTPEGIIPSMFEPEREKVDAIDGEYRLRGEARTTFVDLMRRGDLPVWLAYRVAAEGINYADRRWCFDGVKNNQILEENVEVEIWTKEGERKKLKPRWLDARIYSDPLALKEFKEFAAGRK
T2 sequence (P26663 1027-1657): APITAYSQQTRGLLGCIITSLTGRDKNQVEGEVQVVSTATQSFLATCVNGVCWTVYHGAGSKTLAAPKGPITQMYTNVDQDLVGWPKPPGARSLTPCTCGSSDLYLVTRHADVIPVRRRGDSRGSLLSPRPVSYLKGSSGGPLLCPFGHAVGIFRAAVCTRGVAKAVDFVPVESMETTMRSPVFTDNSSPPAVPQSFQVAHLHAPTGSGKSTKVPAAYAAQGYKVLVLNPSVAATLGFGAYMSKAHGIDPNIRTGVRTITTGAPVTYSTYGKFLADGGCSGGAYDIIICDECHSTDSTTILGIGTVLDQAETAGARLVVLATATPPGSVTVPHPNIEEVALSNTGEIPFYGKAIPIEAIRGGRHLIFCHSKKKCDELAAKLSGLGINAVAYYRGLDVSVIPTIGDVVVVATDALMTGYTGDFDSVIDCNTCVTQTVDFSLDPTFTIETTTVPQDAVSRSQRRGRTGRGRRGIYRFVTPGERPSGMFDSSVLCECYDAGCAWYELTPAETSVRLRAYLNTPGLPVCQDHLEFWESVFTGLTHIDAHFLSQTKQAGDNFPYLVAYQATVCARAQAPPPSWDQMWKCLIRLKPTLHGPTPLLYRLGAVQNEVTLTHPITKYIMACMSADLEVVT
Chain of scNS4A-NS3 (Q9WMX2 1027-1657): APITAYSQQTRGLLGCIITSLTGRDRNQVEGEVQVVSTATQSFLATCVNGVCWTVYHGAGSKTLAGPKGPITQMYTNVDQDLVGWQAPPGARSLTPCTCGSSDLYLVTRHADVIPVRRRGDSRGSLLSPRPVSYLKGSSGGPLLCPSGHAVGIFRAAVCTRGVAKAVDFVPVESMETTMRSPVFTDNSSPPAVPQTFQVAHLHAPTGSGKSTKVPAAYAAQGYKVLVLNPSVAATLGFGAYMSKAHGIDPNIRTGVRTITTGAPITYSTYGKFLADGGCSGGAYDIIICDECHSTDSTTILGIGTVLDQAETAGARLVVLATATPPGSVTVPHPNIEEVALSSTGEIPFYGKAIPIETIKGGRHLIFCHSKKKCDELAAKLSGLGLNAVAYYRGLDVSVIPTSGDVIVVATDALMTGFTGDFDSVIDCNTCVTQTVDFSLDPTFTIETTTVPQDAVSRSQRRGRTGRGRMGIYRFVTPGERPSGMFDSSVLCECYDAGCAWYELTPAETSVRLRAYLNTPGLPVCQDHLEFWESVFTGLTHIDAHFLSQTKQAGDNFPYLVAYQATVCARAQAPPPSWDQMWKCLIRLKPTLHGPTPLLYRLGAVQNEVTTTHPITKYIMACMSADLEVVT
T3 sequence (Q9WMX2 1192-1657): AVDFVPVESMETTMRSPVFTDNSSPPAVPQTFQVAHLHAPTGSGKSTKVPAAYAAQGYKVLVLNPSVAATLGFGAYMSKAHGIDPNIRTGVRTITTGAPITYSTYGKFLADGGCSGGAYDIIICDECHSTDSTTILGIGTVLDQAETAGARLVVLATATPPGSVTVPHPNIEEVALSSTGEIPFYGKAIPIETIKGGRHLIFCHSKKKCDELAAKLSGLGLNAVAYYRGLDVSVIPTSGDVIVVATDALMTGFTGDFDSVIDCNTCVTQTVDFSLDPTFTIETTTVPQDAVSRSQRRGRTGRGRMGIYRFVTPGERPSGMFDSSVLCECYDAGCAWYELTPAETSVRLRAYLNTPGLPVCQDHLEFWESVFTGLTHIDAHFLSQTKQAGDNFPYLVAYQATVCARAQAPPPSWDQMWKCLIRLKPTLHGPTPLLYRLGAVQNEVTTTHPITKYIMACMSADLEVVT

| Structure (SMILES) | IC50 [1] | inhibition at 100 µM [1] | EC50 [1] | IC50 (scNS4A-NS3p) | IC50 (NS3h_1b(con1)) | IC50 (NS3h_DV2) | Absorbance λmax [2] | Fluorescence Emmax [2] | Fluorescence RFU@ 10 μM [2] | Absorbance ∈ [2] | IC50 (scNS4A-NS3) |
| --- | --- | --- | --- | --- | --- | --- | --- | --- | --- | --- | --- |
| Cc1ccc2nc(-c3ccc4nc(-c5ccc(NC(=O)c6ccc(Br)cc6)cc5)sc4c3)sc2c1S(=O)(=O)O [Compound 15, 2′-(4-(4-bromobenzamido)phenyl)-6-methyl-[2,6′-bibenzo[d]thiazole]-7-sulfonic acid] | 27 ± 6 µM | 91% | 27 ± 6 µM | 6.5 µM | 21 ± 1 µM | 3 ± 0.8 µM | 356 nm | 497 nm | 209 RFU | 51,600 M^−1cm^−1 | 6 ± 1 µM |
| Cc1ccc2nc(-c3ccc4nc(-c5ccc(NC(=O)c6cccc(Cl)c6)cc5)sc4c3)sc2c1S(=O)(=O)O [Compound 17, 2′-(4-(3-chlorobenzamido)phenyl)-6-methyl-[2,6′-bibenzo[d]thiazole]-7-sulfonic acid] | 201 ± 119 µM | 47% | > 100 µM | 24 µM | 51 ± 3 µM | 4 ± 0.6 µM | 356 nm | 502 nm | 215 RFU | 59,500 M^−1cm^−1 | > 100 µM |
| Cc1ccc2nc(-c3ccc4nc(-c5ccc(NC(=O)c6ccc(Cl)c(Cl)c6)cc5)sc4c3)sc2c1S(=O)(=O)O [Compound 18, 2′-(4-(3,4-dichlorobenzamido)phenyl)-6-methyl-[2,6′-bibenzo[d]thiazole]-7-sulfonic acid] | 128 ± 57 µM | 53% | > 100 µM | 6.4 µM | 72 ± 13 µM | 4 ± 1 µM | 356 nm | 501 nm | 203 RFU | 44,000 M^−1cm^−1 | 13 ± 4 µM |
| Cc1ccc2nc(-c3ccc4nc(-c5ccc(NC(=O)c6cc(C(F)(F)F)cc(C(F)(F)F)c6)cc5)sc4c3)sc2c1S(=O)(=O)O [Compound 24, 2′-(4-(3,5-bis(trifluoromethyl)benzamido)phenyl)-6-methyl-[2,6′-bibenzo[d]thiazole]-7-sulfonic acid] | 36 ± 7 µM | 73% | 36 ± 7 µM | 7.6 µM | > 200 µM | 11 ± 2 µM | 355 nm | 497 nm | 121 RFU | 45,650 M^−1cm^−1 | 23 ± 15 µM |
| Cc1ccc2nc(-c3ccc4nc(-c5ccc(NC(=O)c6cc(C(F)(F)F)ccc6F)cc5)sc4c3)sc2c1S(=O)(=O)O [Compound 25, 2′-(4-(2-fluoro-5-(trifluoromethyl)benzamido)phenyl)-6-methyl-[2,6′-bibenzo[d]thiazole]-7-sulfonic acid] | 12 ± 8 µM | 69% | 12 ± 8 µM | > 100 µM | 19 ± 2 µM | 7 ± 0.1 µM | 355 nm | 497 nm | 159 RFU | 41,750 M^−1cm^−1 | 51 ± 25 µM |
| Cc1ccc2nc(-c3ccc4nc(-c5ccc(NC(=O)c6ccc7ccccc7c6)cc5)sc4c3)sc2c1S(=O)(=O)O [Compound 33, 2′-(4-(2-naphthamido)phenyl)-6-methyl-[2,6′-bibenzo[d]thiazole]-7-sulfonic acid] | 28 ± 9 µM | 78% | 28 µM | > 100 µM | 52 ± 6 µM | 3 ± 1 µM | 359 nm | 496 nm | 236 RFU | 63,450 M^−1cm^−1 | > 100 µM |
| Cc1ccc2nc(-c3ccc4nc(-c5ccc(N)cc5)sc4c3)sc2c1S(=O)(=O)O [Compound P2a, 2′-(4-aminophenyl)-6-methyl-[2,6′-bibenzo[d]thiazole]-7-sulfonic acid] | 2 µM |  |  | > 100 µM | > 200 µM | 32 ± 17 µM | 366 nm | 553 nm | 15 RFU | 38,550 M^−1cm^−1 | > 100 µM |
